This is an account of results in patent US12071436B2, “Anti-parasitic compounds and uses thereof” (Memorial Sloan-Kettering Cancer Center, priority 2016, dated 2024).

Each structure is given as a SMILES string.

What all share (assay type): in vitro ADME
Data set [1] can be described thus: Metabolic stability in mice liver microsomes (MLM), 0.25 mg/mL. The following applies: mouse, pH 7.4, 1 μM compound, 0.25 mg/mL microsomes, NADPH, read-out: microsomal stability (t1/2, mouse): 0.25 mg/mL hepatic microsomes. How it is done:
To evaluate the metabolic stability of compounds 21 and 37 in mice liver microsomes (MLM), a 1120 μL aliquot of potassium phosphate buffer (50 mM, pH 7.4) containing mice liver microsomes (0.357 mg/mL) was added to individual 2 mL tubes (final concentration 0.25 mg/mL). Imipramine in MLM was run as positive controls. Test compounds (compound 21 or compound 37) and positive control compounds (1 mM DMSO stocks) were directly spiked into respective tubes to prepare a concentration of 1.428 μM (final concentration 1 μM). From the above mix, 70 μL was added to individual wells of 96 well reaction plates and pre-incubated in a 37° C. water bath for 5 min. All the reactions were initiated by adding 30 μL of 3.33 mM NADPH (final concentration 1 mM). Reactions without NADPH and heat inactivated microsomes minus NADPH (0 min and 60 min) were also incubated to rule out non-NADPH metabolism or chemical instability in the incubation buffer. All reactions were terminated using 100 μL of ice-cold acetonitrile containing internal standard (glipizide—2 μM) at 0, 5, 15 and 60 min. The plates were centrifuged at 4000 RPM for 15 min and 100 μL aliquots were submitted for analysis by LC-M/MS. Samples were monitored for parent compound disappearance in Multiple reaction monitoring (MRM) mode using LC-MS/MS.

Data set [2] in a line: Caco-2 bi-directional permeability. The conditions noted are these: human, Caco-2, pH 7.4. How it is done: To evaluate the bi-directional Caco-2 permeability of compounds 21 and 37, Caco-2 cells were grown in Dulbecco's Modified Eagle Medium (DMEM) (20% Fetal bovine serum (FBS)) until 85-90% confluence. After attaining required confluence, cells were trypsinized and seeded into 24 well millcell plates at a density of 0.6×10^5 cells/insert. The plates were maintained for 21 days at 37° C. in CO2 incubator with change of medium every alternative day. Monolayer integrity was monitored by measuring Trans-epithelial electrical resistance (TEER) from day 15. Caco-2 cell monolayer was washed twice with HBSS and incubated for 30 min in CO2 incubator. TEER values were measured and wells showing TEER values above 230 ohms·cm2 were taken for experiments. Bi-directional permeability study was initiated by adding appropriate volume of HBSS containing the test compounds or probe P-gp substrate loperamide to either the apical (A-B transport) or basal side (B-A transport) of the monolayer. At selected time points (0, 15, 30, 60 and 90 mins) an aliquot of 50 μL was collected from the receiver compartment for determination of test compound concentrations. The volume withdrawn was replaced immediately with plain HBSS buffer (pH 7.4). TEER was measure at the end of the experiment to test the post experiment monolayer integrity. […]

A short description of data set [3]: Parallel artificial membrane permeability assay (PAMPA), commercial kit. The following applies: PBS, room temperature, read-out: Parallel artificial membrane permeability assay (PAMPA) Permeability (log Pe [cm/s]) (converted). The procedure: To evaluate the Parallel Artificial Membrane Permeability Assay (PAMPA) of selected compounds, an assessment of permeability was done using a commercial PAMPA kit. Selected compounds were evaluated over a range of concentrations by 300 μl of PBS containing the compound to the bottom donor plate. Selected compounds were from DMSO stocks and the final DMSO concentration in the donor wells was one percent. 200 μl of blank PBS was added to the top receiver plate. The plates were allowed to incubate at room temperature. After 5 hours, aliquots were taken from the donor and receiver plates and the concentration of drug was determined. Compound permeability was calculated using the equation [formula] where Pe is expressed in units of cm/s, CA(t) is drug concentration in the acceptor at time t, VD is donor well volume, VA is acceptor well volume, A is the area of the filter (0.3 cm^2), t is time in seconds, and Ceq=[CD(t)*VD+CA(t)*VA]/(VD+VA).
(In general: The PAMPA barrier holds no transporters, so it reflects passive diffusion.)

As a reminder, the efflux ratio is the permeability from basolateral to apical divided by that in the opposite direction, in the common usage. Consider `CN(C)CC#Cc1cccc(-c2nc(C(=O)NCc3ccc4c(c3)OCO4)cc3c2[C@@H](CCO)N([S@+]([O-])C(C)(C)C)C3)c1` [compound 21, (R)-N-(Benzo[d][1,3]dioxol-5-ylmethyl)-2-((R)-tert-butylsulfinyl)-4-(3-(3-(dimethyl-amino)prop-1-yn-1-yl)phenyl)-3-(2-hydroxyethyl)-2,3-dihydro-1H-pyrrolo[3,4-c]pyridine-6-carboxamide], for which, in data set [1], the half-life at 1 μM is 46 min. Besides, in data set [2], the efflux ratio at 90 min was 24.9. Also, in data set [3], the Papp at 5 h is 0.055 ×10⁻⁶ cm/s.
The like results for `CN(C)CC#Cc1cccc(-c2nc(C(=O)N[C@@H]3CCN(Cc4ccccc4)C3)cc3c2[C@@H](CCO)N([S@+]([O-])C(C)(C)C)C3)c1` [compound 37, (R)-N-((R)-1-Benzylpyrrolidin-3-yl)-2-((R)-tert-butylsulfinyl)-4-(3-(3-(dimethylamino)prop-1-yn-1-yl)phenyl)-3-(2-hydroxyethyl)-2,3-dihydro-1H-pyrrolo[3,4-c]pyridine-6-carboxamide] were, in that order, 13 min, 13.2 and 5.75 ×10⁻⁶ cm/s.
